Entries after “also recorded” stand apart in the source; their conditions may differ.
Assays:
Dd2 parent parasites = assay: Parasite proliferation assay, Dd2 parent; format: cell-based, Plasmodium falciparum; details: Plasmodium falciparum, DD2, read-out: IC50 value, growth inhibition
Protocol: Parasite proliferation was measured in 96-well plates using a fluorescent DNA-intercalating dye [45]. The assays were initiated with erythrocytes infected with predominantly ring-stage parasites, and the starting parasitaemia was 0.5–1% and the haematocrit was 1%.

[1] = tested on: MMV007839-selected culture A (PfFNT Gly107Ser); assay: Parasite proliferation assay, MMV007839-selected culture A; format: cell-based, Plasmodium falciparum
Protocol: (§1) Parasite proliferation was measured in 96-well plates using a fluorescent DNA-intercalating dye. The assays were initiated with erythrocytes infected with predominantly ring-stage parasites, and the starting parasitaemia was 0.5–1% and the haematocrit was 1%.
(§2) For MMV007839-selected culture A, the drug concentration was increased by 5 nM increments on Day 18, Day 21, and every two days thereafter. […] The cultures were provided with fresh medium and blood and diluted to reduce the parasitaemia as needed.

[2] = tested on: MMV007839-selected culture B (PfFNT Gly107Ser); assay: Parasite proliferation assay, MMV007839-selected culture B; format: cell-based, Plasmodium falciparum; details: Plasmodium falciparum, read-out: IC50 value, growth inhibition
Protocol: as §1, §2

3D7 parasites = details: ref [1] Van Voorhis et al. 2016; read-out: IC50 for killing of 3D7 parasites; cited from earlier work
[3] = tested on: PfFNT^Gly107Ser mutant parasites (MMV007839-selected culture B); assay: L-[14C]lactate uptake by isolated PfFNT Gly107Ser mutant parasites; details: 100 μM, pH 6.1, 4°C
[4] = tested on: isolated 3D7 P. falciparum trophozoites; assay: L-[14C]lactate uptake by isolated 3D7 trophozoites; details: 50 μM; pH 6.1, 4°C; control (DMSO) 6.7 ± 0.4; mean ± SEM
Dd2 parental parasites = assay: L-[14C]lactate uptake by isolated Dd2 parental parasites; details: 100 μM; parental parasites; pH 6.1, 4°C
[5] = tested on: erythrocytes infected with 3D7 trophozoites; format: cell-based, Plasmodium falciparum; details: sheet Ratio; for Ratio of metabolite abundance, Exp1_1hr: Exp1, 1hr; for Ratio of metabolite abundance, Exp1_3hr: Exp1, 3hr; for Ratio of metabolite abundance, Exp1_6hr: Exp1, 6hr; for Ratio of metabolite abundance, Exp2_1hr: Exp2, 1hr; for Ratio of metabolite abundance, Exp2_3hr: Exp2, 3hr; for Ratio of metabolite abundance, Exp2_6hr: Exp2, 6hr; for Ratio of metabolite abundance, Exp3_1hr: Exp3, 1hr; for Ratio of metabolite abundance, Exp3_3hr: Exp3, 3hr; for Ratio of metabolite abundance, Exp3_6hr: Exp3, 6hr

## C[C@@H]1CC[C@H]2[C@@H](C)C(=O)O[C@@H]3O[C@@]4(C)CC[C@@H]1[C@]32OO4 [Artemisinin, reference compound]
Dd2 parent parasites
  IC50: 15.6 nM
[1]; Plasmodium falciparum, MMV007839-selected culture A, mean ± SEM, read-out: IC50 value, growth inhibition
  IC50: 22 ± 3.3 nM
[1]; both MMV007839-selected cultures (A and B), P > 0.1
  Response of MMV007839-selected cultures compared with Dd2 parental parasites: not significantly different; also recorded: not affecting
[2]
  IC50: 16.5 ± 0.4 nM

## CC(C)OCc1cc(CN2CCN(c3cccc(Cl)c3)CC2)c(O)c2ncccc12 [MMV000788]
3D7 parasites
  IC50: 700 nM

## Brc1ccc(Nc2nc3ccccc3nc2Nc2ccc(Br)cc2)cc1 [MMV007224]
3D7 parasites
  IC50: 1060 nM

## Cc1ccc(Nc2nc(-c3ccccn3)cs2)cc1 [MMV007907]
3D7 parasites
  IC50: 350 nM

## Cc1cccc(-n2ncc3c(O)nc(-n4nc(C)cc4NC(=O)c4cc5ccccc5o4)nc32)c1 [MMV403679]
3D7 parasites
  IC50: 930 nM

## FC(F)(F)c1cccc(Nc2nc3ccccc3nc2Nc2cccc(C(F)(F)F)c2)c1 [MMV665794]
3D7 parasites
  IC50: 310 nM

## O=C(Nc1ccc(Cl)c(Cl)c1)Nc1ccc(Cl)c(Cl)c1 [MMV665852]
3D7 parasites
  IC50: 1160 nM

## CCCCNc1nc(NC(C)(C)C)nc(NC(C)(C)C)n1 [MMV665864]
3D7 parasites
  IC50: 710 nM

## O=C(Nc1nc(-c2ccccn2)cs1)c1ccccc1Br [MMV665909]
3D7 parasites
  IC50: 1360 nM

## O=C(Nc1ccc(F)c(Cl)c1)Nc1ccc(Cl)c(Cl)c1 [MMV665953]
3D7 parasites
  IC50: 2060 nM

## O=C(Cc1ccccc1)NC(c1ccc(Cl)cc1)c1c(O)ccc2ccccc12 (stereo not shown) [MMV665972]
3D7 parasites
  IC50: 1140 nM

## CCCCCCc1cc(O)c2c3c(c(=O)oc2c1)CCC(C)C3 (stereo not shown) [MMV665987]
3D7 parasites
  IC50: 530 nM

## O=C(NC(c1ccccc1)c1ccc2cccnc2c1O)c1ccccc1 (stereo not shown) [MMV666080]
3D7 parasites
  IC50: 1170 nM

## O=C(O)c1cc([N+](=O)[O-])ccc1NCCCc1ccccc1 [NPPB, reference compound]
[3]
  Effect on rate of L-[14C]lactate influx: reduced the rate
[4]
  L-[14C]lactate distribution ratio at 20 s: 0.4 ± 0.1
Dd2 parental parasites
  Effect on rate of L-[14C]lactate influx: reduced the rate

## Nc1ncnc2c1ncn2[C@H]1C[C@H](O)[C@@H](COP(=O)(O)OP(=O)(O)OP(=O)(O)O)O1 [dATP]
[5]
  Ratio of metabolite abundance, Exp1_1hr: 0.9995
  Ratio of metabolite abundance, Exp1_3hr: 0.8537
  Ratio of metabolite abundance, Exp1_6hr: 0.9613
  Ratio of metabolite abundance, Exp2_1hr: 1.009
  Ratio of metabolite abundance, Exp2_3hr: 1.102
  Ratio of metabolite abundance, Exp2_6hr: 1.077
  Ratio of metabolite abundance, Exp3_1hr: 1.104
  Ratio of metabolite abundance, Exp3_3hr: 0.9965
  Ratio of metabolite abundance, Exp3_6hr: 1.005

## Nc1ccn([C@H]2C[C@H](O)[C@@H](COP(=O)(O)OP(=O)(O)O)O2)c(=O)n1 [dCDP]
[5]
  Ratio of metabolite abundance, Exp1_1hr: 1.169
  Ratio of metabolite abundance, Exp1_3hr: 1.109
  Ratio of metabolite abundance, Exp1_6hr: 1.155
  Ratio of metabolite abundance, Exp2_1hr: 1.1851
  Ratio of metabolite abundance, Exp2_3hr: 1.387
  Ratio of metabolite abundance, Exp2_6hr: 1.852
  Ratio of metabolite abundance, Exp3_1hr: 1.354
  Ratio of metabolite abundance, Exp3_3hr: 1.295
  Ratio of metabolite abundance, Exp3_6hr: 1.494

## Nc1nc2c(ncn2[C@H]2C[C@H](O)[C@@H](COP(=O)(O)O)O2)c(=O)[nH]1 [dGMP]
[5]
  Ratio of metabolite abundance, Exp1_1hr: 1.008
  Ratio of metabolite abundance, Exp1_3hr: 1.65
  Ratio of metabolite abundance, Exp1_6hr: 0.6713
  Ratio of metabolite abundance, Exp2_1hr: 1.04
  Ratio of metabolite abundance, Exp2_3hr: 0.9344
  Ratio of metabolite abundance, Exp2_6hr: 0.8266
  Ratio of metabolite abundance, Exp3_1hr: 1.138
  Ratio of metabolite abundance, Exp3_3hr: 0.9165
  Ratio of metabolite abundance, Exp3_6hr: 0.8614

## Cc1cn([C@H]2C[C@H](O)[C@@H](COP(=O)(O)O)O2)c(=O)[nH]c1=O [dTMP]
[5]
  Ratio of metabolite abundance, Exp1_1hr: 1.094
  Ratio of metabolite abundance, Exp1_3hr: 1.051
  Ratio of metabolite abundance, Exp1_6hr: 1.314
  Ratio of metabolite abundance, Exp2_1hr: 1.082
  Ratio of metabolite abundance, Exp2_3hr: 1.005
  Ratio of metabolite abundance, Exp2_6hr: 1.669
  Ratio of metabolite abundance, Exp3_1hr: 0.8062
  Ratio of metabolite abundance, Exp3_3hr: 1.245
  Ratio of metabolite abundance, Exp3_6hr: 1.203

## Cc1cn([C@H]2C[C@H](O)[C@@H](COP(=O)(O)OP(=O)(O)OP(=O)(O)O)O2)c(=O)[nH]c1=O [dTTP]
[5]
  Ratio of metabolite abundance, Exp1_1hr: 1.097
  Ratio of metabolite abundance, Exp1_3hr: 0.6301
  Ratio of metabolite abundance, Exp1_6hr: 0.6957
  Ratio of metabolite abundance, Exp2_1hr: 1.256
  Ratio of metabolite abundance, Exp2_3hr: 1.272
  Ratio of metabolite abundance, Exp2_6hr: 1.427
  Ratio of metabolite abundance, Exp3_1hr: 1.1105
  Ratio of metabolite abundance, Exp3_3hr: 1.053
  Ratio of metabolite abundance, Exp3_6hr: 1.149

## O=c1ccn([C@H]2C[C@H](O)[C@@H](COP(=O)(O)O)O2)c(=O)[nH]1 [dUMP]
[5]
  Ratio of metabolite abundance, Exp1_1hr: 3.473
  Ratio of metabolite abundance, Exp1_3hr: 5.178
  Ratio of metabolite abundance, Exp1_6hr: 2.302
  Ratio of metabolite abundance, Exp2_1hr: 3.524
  Ratio of metabolite abundance, Exp2_3hr: 1.859
  Ratio of metabolite abundance, Exp2_6hr: 4.376
  Ratio of metabolite abundance, Exp3_1hr: 1.122
  Ratio of metabolite abundance, Exp3_3hr: 1.775
  Ratio of metabolite abundance, Exp3_6hr: 0.8871

## O=P(O)(O)OC[C@H](O)CO [sn-Glycerol 3-phosphate]
[5]
  Ratio of metabolite abundance, Exp1_1hr: 2.74
  Ratio of metabolite abundance, Exp1_3hr: 3.024
  Ratio of metabolite abundance, Exp1_6hr: 2.283
  Ratio of metabolite abundance, Exp2_1hr: 2.716
  Ratio of metabolite abundance, Exp2_3hr: 2.322
  Ratio of metabolite abundance, Exp2_6hr: 2.253
  Ratio of metabolite abundance, Exp3_1hr: 2.3639
  Ratio of metabolite abundance, Exp3_3hr: 3.645
  Ratio of metabolite abundance, Exp3_6hr: 2.752

## O=P(O)(OC[C@H](O)CO)OC1[C@H](O)[C@H](O)C(O)[C@H](O)[C@H]1O (stereo partly shown) [sn-glycero-3-Phospho-1-inositol]
[5]
  Ratio of metabolite abundance, Exp1_1hr: 0.9506
  Ratio of metabolite abundance, Exp1_3hr: 1.24
  Ratio of metabolite abundance, Exp1_6hr: 0.9287
  Ratio of metabolite abundance, Exp2_1hr: 1.0526
  Ratio of metabolite abundance, Exp2_3hr: 1.0759
  Ratio of metabolite abundance, Exp2_6hr: 1.139
  Ratio of metabolite abundance, Exp3_1hr: 0.7659
  Ratio of metabolite abundance, Exp3_3hr: 1.067
  Ratio of metabolite abundance, Exp3_6hr: 1.2236

— article PMC5298231, “The Malaria Parasite's Lactate Transporter PfFNT Is the Target of Antiplasmodial Compounds Identified in Whole Cell Phenotypic Screens” (PLoS Pathogens, 2017)
